Activity calls are given as the source filed them. No cut-off for these calls is given here.
How the values were obtained:
Plasmodium falciparum [1] = test: Antimalarial activity against CQ-sensitive Plasmodium falciparum NF54 infected in human type O+ erythrocytes assessed as growth inhibition incubated for 48 hrs by LDH assay; type: functional, organism-based; conditions: NF54, 48 h
Hemozoin [2] = test: Inhibition of beta-hematin in water/NP40/DMSO solution incubated for 5 to 6hrs by detergent-mediated pyridine-ferrichrome method
Ferriprotoporphyrin IX [3] = test: Binding affinity to Fe(3)PP9 solution assessed as ferriprotoporphyrin 9 complex formation by measuring compound concentration causing pink precipitate formation at <=5500 uM
Ferriprotoporphyrin IX [4] = tested on: Ferriprotoporphyrin IX
Description: Binding affinity to Fe(3)PP9 in hematin solution at pH 7.5 by titration-based UV-vis spectrophotometrical analysis

Ferriprotoporphyrin IX [5] = test: Binding affinity to Fe(3)PP9 solution assessed as ferriprotoporphyrin 9 complex formation by measuring pink precipitate formation at <=5500 uM
Hemozoin [6] = test: Inhibition of beta-hematin
Plasmodium falciparum [7] = test: Antimalarial activity against CQ-sensitive Plasmodium falciparum D10 infected in human type O+ erythrocytes assessed as growth inhibition incubated for 48 hrs by LDH assay; type: functional, organism-based; conditions: D10, 48 h
Hemozoin [8] = test: Inhibition of beta-hematin incubated for 6 hrs by NP40 detergent-mediated assay
Plasmodium falciparum [9] = test: Antimalarial activity against Plasmodium falciparum D6 infected in red blood cells assessed as growth inhibition by SYBR green1 fluorescence-based assay; type: functional, organism-based
Plasmodium falciparum [10] = test: Antimalarial activity against CQ-sensitive Plasmodium falciparum D10 infected in human type O+ erythrocytes assessed as growth inhibition up to 249 uM incubated for 48 hrs by LDH assay; type: functional, organism-based
Plasmodium falciparum [11] = test: Antimalarial activity against CQ-sensitive Plasmodium falciparum NF54 infected in human type O+ erythrocytes assessed as growth inhibition up to 249 uM incubated for 48 hrs by LDH assay; type: functional, organism-based

SMILES | IC50 (Plasmodium falciparum [1]) [µM] | IC50 (Hemozoin [2]) [µM] | Activity (Ferriprotoporphyrin IX [3]) | also measured
O=C(Nc1ccncc1)c1cccc(C(=O)Nc2ccncc2)n1 | > 315 | 260 | – | –
COc1cc(C(=O)Nc2ccccc2)cc(C(=O)Nc2ccccc2)c1 | 37 | > 1000 | – | –
O=C(Nc1ccncc1)c1ccc(Cl)cc1 | – | – | 4500 to 5500 µM | –
C=C[C@H]1CN2CC[C@H]1C[C@@H]2[C@@H](O)c1ccnc2ccc(OC)cc12 | – | – | – | log K (Ferriprotoporphyrin IX [4]): 5.26
O=C(Nc1ccccc1)c1cccc(C(=O)Nc2ccccc2)n1 | > 315 | > 1000 | – | –
O=C(Nc1ccncc1)c1ccccc1 | – | > 5500 | inactive | Activity (Ferriprotoporphyrin IX [5]): inactive
COc1ccc(C(=O)Nc2ccncc2)cc1 | – | > 5500 | inactive | Activity (Ferriprotoporphyrin IX [5]): inactive
Cc1cc(C(=O)Nc2ccncc2)cc(C(=O)Nc2ccncc2)c1 | 2.5 | 8 | – | log K (Ferriprotoporphyrin IX [4]): 3.92
COc1cc(C(=O)Nc2ccncc2)cc(C(=O)Nc2ccncc2)c1 | 3 | 22 | – | –
O=C(Nc1ccccc1)c1cc(C(=O)Nc2ccccc2)cc([N+](=O)[O-])c1 | 1.4 | 7 | – | –
Cc1cc(C(=O)Nc2ccccc2)cc(C(=O)Nc2ccccc2)c1 | 146 | > 1000 | – | –
CCN(CC)Cc1cc(Nc2ccnc3cc(Cl)ccc23)ccc1O [AMODIAQUINE] | – | – | – | IC50 (Hemozoin [6]): 21 µM
O=C(Nc1ccccc1)c1cc([N+](=O)[O-])cc([N+](=O)[O-])c1 | 5 | 22 | – | –
O=C(Nc1ccncc1)c1cc([N+](=O)[O-])cc([N+](=O)[O-])c1 | 2.3 | 10.9 | – | IC50 (Plasmodium falciparum [7]): 2.4 µM; IC50 (Hemozoin [8]): 9.04 µM; IC50 (Plasmodium falciparum [9]): 4.76 µM
O=C(Nc1ccncc1)c1ccc(Cl)c(Cl)c1 | – | – | 700 to 1300 µM | –
O=C(Nc1ccncc1)c1ccc([N+](=O)[O-])cc1 | – | > 5500 | inactive | Activity (Ferriprotoporphyrin IX [5]): inactive
Cc1ccc(C(=O)Nc2ccncc2)cc1 | – | > 5500 | inactive | Activity (Ferriprotoporphyrin IX [5]): inactive
O=C(Nc1ccccc1)c1cc(C(=O)Nc2nc3ccccc3[nH]2)cc([N+](=O)[O-])c1 | – | 68 | – | Activity (Plasmodium falciparum [10]): inactive; Activity (Plasmodium falciparum [11]): inactive
O=C(Nc1ccccc1)c1ccc([N+](=O)[O-])cc1 | – | > 5500 | inactive | Activity (Ferriprotoporphyrin IX [5]): inactive
